The values that follow come from patent publication US7842698B2, “Pyridine methylene azolidinones and use thereof phosphoinositide inhibitors” (Merck Serono S.A., priority 2004, dated 2010).

The target in data set [1] is Human recombinant GST-PI3Kγ (Homo sapiens, UniProt P48736). Nature of the data set: High throughput PI3K lipid kinase assay (scintillation proximity assay, neomycin-coated SPA beads). The conditions noted are these: [33P]γ-ATP, 180 minutes at room temperature. Format: biochemical. From the text:
a) High Throughput PI3K Lipid Kinase Assay (Binding Assay):
The efficacy of compounds of the invention in inhibiting the PI3K induced-lipid phosphorylation may be tested in the following binding assay.
The assay combines the scintillation proximity assay technology (SPA, Amersham) with the capacity of neomycin (a polycationic antibiotic) to bind phospholipids with high affinity and specificity. The Scintillation Proximity Assay is based on the properties of weakly emitting isotopes (such as ^3H, ^125I, ^33P). Coating SPA beads with neomycin allows the detection of phosphorylated lipid substrates after incubation with recombinant PI3K and radioactive ATP in the same well, by capturing the radioactive phospholipids to the SPA beads through their specific binding to neomycin.
To a 384 wells MTP containing 5 μl of the test compound of Formula (I) (solubilized in 6% DMSO; to yield a concentration of 100, 30, 10, 3, 1, 0.3, 0.1, 0.03, 0.01, 0.001 μM of the test compound), the following assay components are added. 1) 5 μl (58 ng) of Human recombinant GST-PI3Kγ (in Hepes 40 mM, pH 7.4, DTT 1 mM and ethyleneglycol 5%) 2) 10 μl of lipid micelles and 3) 10 μl of Kinase buffer ([^33P]γ-ATP 45 μM/60 n Ci, MgCl2 30 mM, DTT 1 mM, β-Glycerophosphate 1 mM, Na3VO4 100 μM, Na Cholate 0.3%, in Hepes 40 mM, pH 7.4). After incubation at room temperature for 180 minutes, with gentle agitation, the reaction is stopped by addition of 60 μl of a solution containing 100 μg of neomycin-coated PVT SPA beads in PBS containing ATP 10 mM and EDTA 5 mM. The assay is further incubated at room temperature for 60 minutes with gentle agitation to allow binding of phospholipids to neomycin-SPA beads. After precipitation of the neomycin-coated PVT SPA beads for 5 minutes at 1500× g, radioactive PtdIns(3)P is quantified by scintillation counting in a Wallac MicroBeta™ plate counter.
The values indicated in Table I below refer to the IC50 (nM) with respect to PI3Kγ, i.e. the amount necessary to achieve 50% inhibition of said target. Said values show a considerable inhibitory potency of thiazole compounds with regard to PI3Kγ.
In general terms: In a scintillation proximity assay essentially only radioactivity close to the scintillant gives light.

In data set [2] the test system is Akt/PKB phosphorylation in Raw 264-7 macrophages. Put plainly: Cell based ELISA to monitor PI3K inhibition: Akt/PKB phosphorylation in macrophages after stimulation with Complement 5a. Conditions: Mus musculus, RAW264.7, 50 nM Complement 5a for 5 minutes, inhibitors pretreated 20 minutes, phospho Serine 473 Akt, read-out: Cell Assay (P-Akt, Elisa) IC50. Here is the method:
b) Cell Based ELISA to Monitor PI3K Inhibition:
The efficacy of compounds of the invention in inhibiting the PI3K induced Akt/PKB phosphorylation may be tested in the following cell based assay.
Measurement of Akt/PKB phosphorylation in macrophages after stimulation with Complement 5a: Raw 264: Raw 264-7 macrophages (cultured in DMEM-F12 medium containing 10% Fetal Calf serum and antibiotics) are plated at 20′000 cells/well in a 96 MTP 24 h before cell stimulation. Previous to the stimulation with 50 nM of Complement 5a during 5 minutes, Cells are serum starved for 2 h, and pretreated with inhibitors for 20 minutes. After stimulation cells are fixed in 4% formaldehyde for 20 minutes and washed 3 times in PBS containing 1% Triton X-100 (PBS/Triton). Endogenous peroxidase is blocked by a 20 minutes incubation in 0.6% H2O2 and 0.1% Sodium Azide in PBS/Triton and washed 3 times in PBS/Triton. Cells are then blocked by 60 minutes incubation with 10% fetal calf serum in PBS/Triton. Next, phosphorylated Akt/PKB is detected by an overnight incubation at 4° C. with first antibody (anti phospho Serine 473 Akt IHC, Cell Signaling) diluted 800-fold in PBS/Triton, containing 5% bovine serum albumin (BSA). […] The reaction is stopped by addition of 50 μl of 1 M SO4H2 and absorbance is read at 450 nm. […]

A further data set has as its system Class I PI3-kinases. The conditions noted are these: Fruman et al., 1998, cited from earlier work.
For the next data set, the system named is phospholipases. Conditions: cited from earlier work.

Structures can show the parent of a compound that is named as a salt. Where two headings read alike, the source gives them in different places.

Chain of Human recombinant GST-PI3Kγ (P48736 whole entry): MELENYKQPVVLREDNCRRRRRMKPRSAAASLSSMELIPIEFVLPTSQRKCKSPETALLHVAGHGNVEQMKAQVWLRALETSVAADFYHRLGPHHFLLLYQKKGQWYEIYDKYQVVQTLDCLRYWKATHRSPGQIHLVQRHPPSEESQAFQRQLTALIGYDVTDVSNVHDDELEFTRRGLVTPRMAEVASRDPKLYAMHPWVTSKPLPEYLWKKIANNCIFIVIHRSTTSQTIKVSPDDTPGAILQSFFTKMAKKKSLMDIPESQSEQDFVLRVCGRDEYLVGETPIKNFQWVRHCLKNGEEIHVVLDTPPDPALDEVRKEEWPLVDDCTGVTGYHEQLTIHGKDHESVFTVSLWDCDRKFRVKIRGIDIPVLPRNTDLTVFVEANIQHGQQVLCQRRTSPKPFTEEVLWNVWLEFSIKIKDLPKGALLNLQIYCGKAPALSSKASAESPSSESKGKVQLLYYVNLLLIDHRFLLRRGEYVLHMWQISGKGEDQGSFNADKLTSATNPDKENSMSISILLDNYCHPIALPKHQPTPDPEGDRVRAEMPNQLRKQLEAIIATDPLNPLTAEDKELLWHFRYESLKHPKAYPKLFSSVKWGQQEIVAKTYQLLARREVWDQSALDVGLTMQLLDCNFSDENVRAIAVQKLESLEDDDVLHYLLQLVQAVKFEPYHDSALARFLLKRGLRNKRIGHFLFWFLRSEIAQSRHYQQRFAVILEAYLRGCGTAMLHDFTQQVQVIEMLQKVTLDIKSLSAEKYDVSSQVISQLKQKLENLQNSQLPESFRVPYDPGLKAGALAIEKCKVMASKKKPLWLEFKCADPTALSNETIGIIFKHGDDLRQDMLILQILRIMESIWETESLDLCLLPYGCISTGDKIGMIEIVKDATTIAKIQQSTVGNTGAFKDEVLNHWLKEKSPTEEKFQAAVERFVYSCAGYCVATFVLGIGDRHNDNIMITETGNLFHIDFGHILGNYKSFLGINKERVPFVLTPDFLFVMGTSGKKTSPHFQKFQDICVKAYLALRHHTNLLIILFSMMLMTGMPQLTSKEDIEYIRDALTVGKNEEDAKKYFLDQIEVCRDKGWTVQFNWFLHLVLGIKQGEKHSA

For the compound `O=C1NC(=O)/C(=C/c2ccc3ncnc(N4CCCCC4)c3n2)S1` (as salt: potassium) [Example 1, (5Z)-5-{[4-(1-piperidinyl)pyrido[3,2-d]pyrimidin-6-yl]methylene}-1,3-thiazolidine-2,4-dione potassium salt], the melting point (usually the temperature of the solid-liquid transition) is 319 °C. In the case of `O=C1NC(=O)/C(=C/c2ccc3ncnc(N4CCCCC4)c3n2)S1` [Example 1, (5Z)-5-{[4-(1-piperidinyl)pyrido[3,2-d]pyrimidin-6-yl]methylene}-1,3-thiazolidine-2,4-dione potassium salt], the half-inhibitory concentration (IC50) – broadly, the concentration that gives 50% inhibition – in data set [1] is 0.004 µM; in data set [2], below 0.01 µM. As to `O=C1NC(=O)/C(=C/c2ccc3ncnc(N4CCC(C(F)(F)F)CC4)c3n2)S1` [Example 3, (5Z)-5-({4-[4-(trifluoromethyl)-1-piperidinyl]pyrido[3,2-d]pyrimidin-6-yl}methylene)-1,3-thiazolidine-2,4-dione potassium salt], the values for the IC50 in data set [1] and in data set [2] were 0.006 µM and below 0.01 µM, respectively. As for `O=C1NC(=O)/C(=C/c2ccc3nccnc3n2)S1` [Example 4, 5-Pyrido[2,3-b]pyrazin-6-ylmethylene-thiazolidine-2,4-dione], in data set [1], the IC50 was 0.02 µM. The same measure, in the same setting: to `O=C1NC(=O)/C(=C/c2ccc3occc3n2)S1` [Example 5, 5-Furo[3,2-b]pyridin-5-ylmethylene-thiazolidine-2,4-dione] belongs 0.035 µM; to `O=C1NC(=S)SC1=Cc1ccc2ncnc(N3CCC(F)CC3)c2n1` [Example 6, 5-[4-(4-Fluoro-piperidin-1-yl)-pyrido[3,2-d]pyrimidin-6-ylmethylene]-2-thioxo-thiazolidin-4-one], 0.002 µM; to `COc1cc(OC)cc(-n2cnc3ccc(/C=C4\SC(=O)NC4=O)nc32)c1` [Example 8, (5Z)-5-{[3-(3,5-dimethoxyphenyl)-3H-imidazo[4,5-b]pyridin-5-yl]methylene}-1,3-thiazolidine-2,4-dione], 0.01 µM. In the case of `CN(C)CCCC(=O)N1CCc2cc(-n3cnc4ccc(/C=C5\SC(=O)NC5=O)nc43)ccc21` [Example 12, (5Z)-5-[(3-{1-[4-(dimethylamino)butanoyl]-2,3-dihydro-1H-indol-5-yl}-3H-imidazo[4,5-b]pyridin-5-yl)methylene]-1,3-thiazolidine-2,4-dione], the IC50 in data set [1] is 0.007 µM. For `O=c1cc(N2CCOCC2)oc2c(-c3ccccc3)cccc12` [LY294002], the IC50 with Class I PI3-kinases (LY294002, read-out: IC50 against each of these PI3-kinases (Class I)) was 15 to 20 µM. Also, the “inhibitory activity on phospholipases” value in the data set on phospholipases is recorded as “some inhibitory activity”. On to `COC[C@H]1OC(=O)c2coc3c2[C@@]1(C)C1=C(C3=O)[C@@H]2CCC(=O)[C@@]2(C)C[C@H]1OC(C)=O` [wortmannin], for which the IC50 with Class I PI3-kinases (wortmannin, read-out: IC50 against each of the various Class I PI3-kinases) was 0.001 to 0.01 µM.
